# PubChem BioAssay (NCI)
#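 Method: 48-hour compound exposure of cells in 96-well plates, five concentrations, linear interpolation of endpoints. Definition used: TGI = concentration required for complete inhibition of growth.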 Active and inactive are the calls of the source. Rule as the data show it: active = GI50 below about 0.43 µM; inactive = the rest.
# Assays:
# Test in all cases: DTP human tumour cell line panel, 48 h
# [1] = tested on: HT29 colon
# [2] = tested on: SK-OV-3 ovarian
# [3] = tested on: DU-145 prostate
# [4] = tested on: IGROV1 ovarian
# [5] = tested on: A498 renal
# [6] = tested on: EKVX NSCLC
# [7] = tested on: NCI-H460 lung
# [8] = tested on: SW-620 colon
# [9] = tested on: SN12C renal
# [10] = tested on: LOX IMVI melanoma
# [11] = tested on: T-47D breast
# [12] = tested on: RPMI-8226 leukemia
# [13] = tested on: OVCAR-3 ovarian
# [14] = tested on: KM12 colon
# [15] = tested on: 786-0 renal
# [16] = tested on: U251 CNS
# [17] = tested on: K-562 leukemia
# [18] = tested on: SK-MEL-5 melanoma
# [19] = tested on: HS 578T breast
# [20] = tested on: OVCAR-5 ovarian
# [21] = tested on: TK-10 renal
# [22] = tested on: MDA-N
# [23] = tested on: SK-MEL-28 melanoma
# [24] = tested on: SR leukemia
# [25] = tested on: HOP-62 NSCLC
# [26] = tested on: SNB-19 CNS
# [27] = tested on: NCI/ADR-RES ovarian
# [28] = tested on: MDA-MB-231 breast
# [29] = tested on: MALME-3M melanoma
# [30] = tested on: SF-295 CNS
# [31] = tested on: NCI-H226 lung
# [32] = tested on: UACC-257 melanoma
# [33] = tested on: PC-3 prostate
# [34] = tested on: MCF7 breast
# [35] = tested on: OVCAR-8 ovarian
# [36] = tested on: A549 NSCLC
# [37] = tested on: CCRF-CEM leukemia
# [38] = tested on: ACHN renal
# [39] = tested on: NCI-H23 lung
# [40] = tested on: MOLT-4 leukemia
# [41] = tested on: HCT-116 colon
# [42] = tested on: CAKI-1 renal
# [43] = tested on: SF-268 CNS
# [44] = tested on: COLO 205 colon
# [45] = tested on: UO-31 renal
# [46] = tested on: HOP-92 NSCLC
# [47] = tested on: HCT-15 colon
# [48] = tested on: SK-MEL-2 melanoma
# [49] = tested on: OVCAR-4 ovarian
# [50] = tested on: HL-60(TB) leukemia
# [51] = tested on: M14 melanoma
# [52] = tested on: HCC-2998 colon
# [53] = tested on: SF-539 CNS
# [54] = tested on: SNB-75 CNS
# [55] = tested on: UACC-62 melanoma
# [56] = tested on: BT-549 breast
# [57] = tested on: RXF 393 renal
# [58] = tested on: MDA-MB-435
# [59] = tested on: NCI-H522 lung
structure (smiles),measurement,setting,value
O=[N+]([O-])c1ccc2nc3n(c2c1)C(c1c(F)cccc1F)SC3 (stereo not given),TGI,[1],> 100 µM
same,TGI,[2],> 100 µM
same,TGI,[3],> 100 µM
same,TGI,[4],> 100 µM
same,TGI,[5],> 100 µM
same,TGI,[6],> 100 µM
same,TGI,[7],> 100 µM
same,TGI,[8],> 100 µM
same,TGI,[9],> 100 µM
same,TGI,[10],> 100 µM
same,TGI,[11],> 10 µM
same,TGI,[12],> 10 µM
same,TGI,[13],> 100 µM
same,TGI,[14],> 100 µM
same,TGI,[15],> 100 µM
same,TGI,[16],> 100 µM
same,TGI,[17],> 10 µM
same,TGI,[18],> 10 µM
same,TGI,[19],> 100 µM
same,TGI,[20],> 100 µM
same,TGI,[21],> 100 µM
same,TGI,[22],> 100 µM
same,TGI,[23],> 100 µM
same,TGI,[24],> 100 µM
same,TGI,[25],> 100 µM
same,TGI,[26],> 100 µM
same,TGI,[27],> 100 µM
same,TGI,[28],> 100 µM
same,TGI,[29],> 100 µM
same,TGI,[30],> 100 µM
same,TGI,[31],> 100 µM
same,TGI,[32],> 100 µM
same,TGI,[33],> 100 µM
same,TGI,[34],> 100 µM
same,TGI,[35],> 10 µM
same,TGI,[36],> 10 µM
same,TGI,[37],> 100 µM
same,TGI,[38],> 100 µM
same,TGI,[39],> 100 µM
same,TGI,[40],> 100 µM
same,TGI,[41],> 100 µM
CC1CN=C(N(C)C(=O)Nc2ccc(Cl)cc2)S1 (stereo not given),TGI,[42],> 100 µM
same,TGI,[43],> 100 µM
same,TGI,[1],> 100 µM
same,TGI,[44],80.2 µM
same,TGI,[2],> 100 µM
same,TGI,[3],> 100 µM
same,TGI,[4],> 100 µM
same,TGI,[5],> 100 µM
same,TGI,[6],> 100 µM
same,TGI,[7],> 100 µM
same,TGI,[8],> 100 µM
same,TGI,[9],> 100 µM
same,TGI,[10],> 100 µM
same,TGI,[45],61 µM
same,TGI,[11],65.6 µM
same,TGI,[13],> 100 µM
same,TGI,[14],> 100 µM
same,TGI,[15],> 100 µM
same,TGI,[16],> 100 µM
same,TGI,[17],> 100 µM
same,TGI,[18],22 µM
same,TGI,[19],> 100 µM
same,TGI,[46],68.8 µM
same,TGI,[47],> 100 µM
same,TGI,[20],66.4 µM
same,TGI,[48],37.3 µM
same,TGI,[21],> 100 µM
same,TGI,[22],> 100 µM
same,TGI,[23],41.8 µM
same,TGI,[24],92.2 µM
same,TGI,[25],> 100 µM
same,TGI,[49],> 100 µM
same,TGI,[26],> 100 µM
same,TGI,[27],37.5 µM
same,TGI,[50],> 100 µM
same,TGI,[51],> 100 µM
same,TGI,[52],> 100 µM
same,TGI,[53],30.8 µM
same,TGI,[28],> 100 µM
same,TGI,[54],> 100 µM
same,TGI,[29],> 100 µM
same,TGI,[30],> 100 µM
same,TGI,[32],35.5 µM
same,TGI,[33],> 100 µM
same,TGI,[34],> 100 µM
same,TGI,[35],> 100 µM
same,TGI,[36],> 100 µM
same,TGI,[38],95.6 µM
same,TGI,[39],> 100 µM
same,TGI,[40],44.1 µM
same,TGI,[41],> 100 µM
[N-]=[N+]=NC1=CC(=O)c2cccc3cccc1c23,TGI,[42],> 100 µM
same,TGI,[43],> 100 µM
same,TGI,[1],> 100 µM
same,TGI,[44],> 100 µM
same,TGI,[2],35.6 µM
same,TGI,[3],> 100 µM
same,TGI,[4],51.8 µM
same,TGI,[5],38.9 µM
same,TGI,[7],> 100 µM
same,TGI,[8],> 100 µM
same,TGI,[9],> 100 µM
same,TGI,[10],> 100 µM
same,TGI,[45],> 100 µM
same,TGI,[11],> 100 µM
same,TGI,[12],> 100 µM
same,TGI,[13],> 100 µM
same,TGI,[14],> 100 µM
same,TGI,[15],> 100 µM
same,TGI,[16],71 µM
same,TGI,[17],> 100 µM
same,TGI,[18],27.8 µM
same,TGI,[19],69.8 µM
same,TGI,[46],66.7 µM
same,TGI,[20],> 100 µM
same,TGI,[55],42.1 µM
same,TGI,[21],88.2 µM
same,TGI,[22],> 100 µM
same,TGI,[23],> 100 µM
same,TGI,[24],> 100 µM
same,TGI,[25],48.1 µM
same,TGI,[56],63 µM
same,TGI,[49],> 100 µM
same,TGI,[26],> 100 µM
same,TGI,[50],> 100 µM
same,TGI,[51],82.8 µM
same,TGI,[52],> 100 µM
same,TGI,[53],88 µM
same,TGI,[28],> 100 µM
same,TGI,[57],34.5 µM
same,TGI,[58],> 100 µM
same,TGI,[54],31 µM
same,TGI,[29],> 100 µM
same,TGI,[30],84.3 µM
same,TGI,[32],72.2 µM
same,TGI,[33],> 100 µM
same,TGI,[34],> 100 µM
same,TGI,[36],> 100 µM
same,TGI,[37],> 100 µM
same,TGI,[38],> 100 µM
same,TGI,[39],82 µM
same,TGI,[40],> 100 µM
same,TGI,[41],> 100 µM
C[C@H](N)C(O)C/C=C\C/C=C\C/C=C\C/C=C\C/C=C\C/C=C\CCCCCCC(O)[C@H](C)N (stereo not given in full),outcome,[42],inactive
same,outcome,[43],inactive
same,outcome,[1],inactive
same,outcome,[44],inactive
same,outcome,[2],inactive
same,outcome,[3],inactive
same,outcome,[5],inactive
same,outcome,[6],inactive
same,outcome,[7],inactive
same,outcome,[8],inactive
same,outcome,[9],inactive
same,outcome,[10],inactive
same,outcome,[45],inactive
same,outcome,[11],inactive
same,outcome,[12],inactive
same,outcome,[13],inactive
same,outcome,[14],inactive
same,outcome,[15],inactive
same,outcome,[16],inactive
same,outcome,[17],inactive
same,outcome,[19],inactive
same,outcome,[47],inactive
same,outcome,[20],inactive
same,outcome,[55],inactive
same,outcome,[48],inactive
same,outcome,[21],inactive
same,outcome,[22],inactive
same,outcome,[23],inactive
same,outcome,[24],inactive
same,outcome,[59],inactive
same,outcome,[25],inactive
same,outcome,[56],inactive
same,outcome,[49],inactive
same,outcome,[26],inactive
same,outcome,[50],inactive
same,outcome,[51],inactive
same,outcome,[52],inactive
same,outcome,[53],inactive
same,outcome,[28],inactive
same,outcome,[57],inactive
same,outcome,[58],inactive
same,outcome,[54],inactive
same,outcome,[29],inactive
same,outcome,[30],inactive
same,outcome,[31],inactive
same,outcome,[32],inactive
same,outcome,[33],inactive
same,outcome,[34],inactive
same,outcome,[35],inactive
same,outcome,[37],inactive
same,outcome,[38],inactive
same,outcome,[39],inactive
same,outcome,[40],inactive
same,outcome,[41],inactive
CCP(=S)(CC)CCl,TGI,[42],> 100 µM
same,TGI,[1],> 100 µM
same,TGI,[44],> 100 µM
same,TGI,[2],> 100 µM
same,TGI,[3],> 100 µM
same,TGI,[4],> 100 µM
same,TGI,[7],> 100 µM
same,TGI,[8],> 100 µM
same,TGI,[9],> 100 µM
same,TGI,[10],> 100 µM
same,TGI,[45],> 100 µM
same,TGI,[11],> 100 µM
same,TGI,[12],> 100 µM
same,TGI,[13],> 100 µM
same,TGI,[16],> 100 µM
same,TGI,[17],> 100 µM
same,TGI,[18],> 100 µM
same,TGI,[19],> 100 µM
same,TGI,[46],> 100 µM
same,TGI,[47],> 100 µM
same,TGI,[20],> 100 µM
same,TGI,[48],> 100 µM
same,TGI,[21],> 100 µM
same,TGI,[22],> 100 µM
same,TGI,[23],> 100 µM
same,TGI,[24],> 100 µM
same,TGI,[59],> 100 µM
same,TGI,[25],> 100 µM
same,TGI,[49],> 100 µM
same,TGI,[26],> 100 µM
same,TGI,[27],> 100 µM
same,TGI,[50],> 100 µM
same,TGI,[51],> 100 µM
same,TGI,[52],> 100 µM
same,TGI,[28],> 100 µM
same,TGI,[54],> 100 µM
same,TGI,[30],> 100 µM
same,TGI,[31],> 100 µM
same,TGI,[32],> 100 µM
same,TGI,[33],> 100 µM
same,TGI,[34],> 100 µM
same,TGI,[35],> 100 µM
same,TGI,[36],> 100 µM
same,TGI,[37],> 100 µM
same,TGI,[38],> 100 µM
same,TGI,[39],> 100 µM
same,TGI,[41],> 100 µM
